Consider ten molecules from ChEMBL document CHEMBL1201862, “PubChem BioAssay data set” (2004).

Among the test systems are SK-OV-3; NCI-H226; SNB-19; M14; TK-10; NCI-H460; COLO 205; U-251; EKVX; SK-MEL-5; SNB-75; PC-3; SF-268; MDA-MB-231; SR; CAKI-1; SW-620; OVCAR-4; RXF 393; UACC-62.
Holding throughout (assay): DTP human tumour cell line panel, 48 h

SMILES strings stand for the structures.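 Interpolation was linear, between the two tested concentrations surrounding the appropriate level; five concentrations were tested over 48 hours in 96-well plates. The concentration for 50% growth inhibition is given as GI50.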 Activity calls are given as the source filed them. Rule as the data show it: active = GI50 up to about 1.1 µM and inactive = higher.

On to `COc1cc(C=O)ccc1Oc1nnnn1-c1ccccc1`, for which the GI50 in the assay with SK-OV-3 was > 100 µM (inactive); in the assay with NCI-H226, < 0.01 µM (active); with SNB-19 it was 54.8 µM (inactive); in the assay with M14, 31.8 µM (inactive); with TK-10 it was > 100 µM (inactive); in the assay on NCI-H460, > 100 µM (inactive). In addition, the GI50 in the assay on COLO 205 is > 100 µM (inactive); in the assay on U-251, 85.3 µM (inactive); with EKVX, > 100 µM (inactive); in the assay with SK-MEL-5, 20.1 µM (inactive); with SNB-75, 34.8 µM (inactive); in the assay with PC-3 it was 82.4 µM (inactive). Also, the GI50 was 42.7 µM (inactive) in the assay with SF-268; > 100 µM (inactive) in the assay on MDA-MB-231; 18.9 µM (inactive) in the assay with SR; 31.3 µM (inactive) in the assay with CAKI-1; 27.5 µM (inactive) in the assay with SW-620; 50.9 µM (inactive) in the assay with OVCAR-4. For the same molecule, the GI50 in the assay with RXF 393 is > 100 µM (inactive).
As for `Brc1ccc2c(-c3csc(-c4c[nH]c5cc(Br)ccc45)n3)c[nH]c2c1`, the GI50 in the assay on SK-OV-3 was 18.5 µM (inactive); in the assay with NCI-H226 it was 30.5 µM (inactive); in the assay with UACC-62, 40.5 µM (inactive); with SNB-19, 21.3 µM (inactive); in the assay on M14, 17.7 µM (inactive); with TK-10, 30.8 µM (inactive). The GI50 in the assay on NCI-H460 was 18.9 µM (inactive); in the assay on COLO 205, 26.8 µM (inactive); in the assay with U-251, 15.8 µM (inactive); with EKVX, 35.3 µM (inactive); in the assay on SK-MEL-5 it was 42.2 µM (inactive); in the assay on SNB-75, 25.1 µM (inactive). The GI50 with PC-3 is 23.7 µM (inactive); in the assay with SF-268 it was 31.2 µM (inactive); in the assay with MDA-MB-231 it was 21 µM (inactive); in the assay on SR it was 5.61 µM (inactive); in the assay on CAKI-1 it was 43.6 µM (inactive); with SW-620, 16 µM (inactive). Besides, the GI50 in the assay with OVCAR-4 is 31 µM (inactive); with RXF 393, 23.4 µM (inactive).
For `Oc1cc(-n2cccn2)c(O)cc1-n1cccn1`, the GI50 in the assay with SK-OV-3 is > 100 µM (inactive); in the assay with NCI-H226, 62.5 µM (inactive); in the assay with UACC-62 it was 38.9 µM (inactive); in the assay with SNB-19 it was > 70.1 µM (inactive); in the assay with M14, 27 µM (inactive); in the assay on TK-10 it was 26.8 µM (inactive). The GI50 is > 100 µM (inactive) with NCI-H460; 18.1 µM (inactive) with COLO 205; 52.4 µM (inactive) with U-251; > 69.2 µM (inactive) in the assay on EKVX; 32.6 µM (inactive) in the assay with SK-MEL-5; > 69.2 µM (inactive) in the assay with SNB-75. In addition, the GI50 was 21.6 µM (inactive) in the assay on PC-3; 55.7 µM (inactive) in the assay with SF-268; 21.9 µM (inactive) in the assay with MDA-MB-231; 12.6 µM (inactive) with SR; 23.6 µM (inactive) in the assay with CAKI-1; 19.1 µM (inactive) in the assay with SW-620. Further, the figures for the GI50 in the assay on OVCAR-4 and in the assay on RXF 393 were 19 µM (inactive) and 16.7 µM (inactive), respectively.
For `CCOc1cc2c(cc1O)/C(=N\N)C[C@@H]1[C@@H]2CC[C@]2(C)[C@@H](O)CC[C@@H]12`, the GI50 is 5.18 µM (inactive) in the assay with SK-OV-3; 4.76 µM (inactive) in the assay on NCI-H226; 0.879 µM (active) in the assay with UACC-62; 3.87 µM (inactive) in the assay on SNB-19; 4.8 µM (inactive) in the assay on M14; 22.2 µM (inactive) in the assay on TK-10. In addition, the GI50 in the assay with NCI-H460 is 2.99 µM (inactive); in the assay on COLO 205, 27.4 µM (inactive); in the assay with U-251, 3.78 µM (inactive); in the assay with EKVX it was 8.28 µM (inactive); in the assay with SK-MEL-5, 1.28 µM (inactive); in the assay with SNB-75, 3.1 µM (inactive). The GI50 in the assay on PC-3 is 6.34 µM (inactive); in the assay on SF-268 it was 5.3 µM (inactive); with MDA-MB-231 it was 5.62 µM (inactive); in the assay on SR, 0.333 µM (active); with CAKI-1 it was 5.43 µM (inactive); with SW-620, 1.85 µM (inactive). Further, the GI50 was 24.7 µM (inactive) in the assay with OVCAR-4 and 5.75 µM (inactive) in the assay on RXF 393.
Turning to `Cc1cccc(CC(Cc2c(C)cccc2C(=O)O)C(=O)O)c1` (stereo not drawn), the GI50 is > 100 µM (inactive) with SK-OV-3; > 100 µM (inactive) in the assay on NCI-H226; 0.0875 µM (active) in the assay with UACC-62; > 100 µM (inactive) with SNB-19; > 100 µM (inactive) with M14; > 100 µM (inactive) in the assay on TK-10. In addition, the GI50 in the assay on NCI-H460 is > 100 µM (inactive); with COLO 205 it was > 100 µM (inactive); in the assay with U-251 it was > 100 µM (inactive); in the assay on EKVX it was > 100 µM (inactive); in the assay on SK-MEL-5 it was 4.49 µM (inactive); in the assay with SNB-75, > 100 µM (inactive). Moreover, the GI50 in the assay with PC-3, in the assay on SF-268, in the assay on MDA-MB-231, in the assay on SR, in the assay with CAKI-1 and in the assay with SW-620 was > 100 µM (inactive) throughout. Also, the GI50 with OVCAR-4 and in the assay on RXF 393 was > 100 µM (inactive) each time.
Turning to `CSC(=S)N/N=C(\C)c1cccc(C)n1`, the GI50 was 0.719 µM (active) in the assay on SK-OV-3; 0.824 µM (active) with NCI-H226; 0.472 µM (active) with UACC-62; 4.04 µM (inactive) in the assay on SNB-19; 0.312 µM (active) in the assay on M14; 0.975 µM (active) in the assay with TK-10. In addition, the GI50 is 0.456 µM (active) in the assay on NCI-H460; 0.0513 µM (active) in the assay with COLO 205; 0.776 µM (active) with U-251; 1.16 µM (inactive) in the assay with EKVX; 0.558 µM (active) in the assay with SK-MEL-5; 1.86 µM (inactive) in the assay on SNB-75. In addition, the GI50 with PC-3 is 0.265 µM (active); with SF-268, 0.708 µM (active); with MDA-MB-231, 1.85 µM (inactive); with SR, 0.23 µM (active); in the assay on CAKI-1 it was 1.1 µM (active); with SW-620, 0.208 µM (active). For the same molecule, the GI50 is 0.497 µM (active) with OVCAR-4 and 0.998 µM (active) with RXF 393.
As to `Nc1ccc(S(=O)(=O)Nc2nc3ccccc3nc2N2CCCCCC2)cc1`, the GI50 is 33.6 µM (inactive) in the assay on SK-OV-3; 34.7 µM (inactive) in the assay on NCI-H226; 18.1 µM (inactive) with UACC-62; 32.7 µM (inactive) in the assay on SNB-19; 37.2 µM (inactive) with M14; 31.8 µM (inactive) in the assay with TK-10. Further, the GI50 was 23.4 µM (inactive) in the assay with NCI-H460; 16.6 µM (inactive) with COLO 205; 20.2 µM (inactive) with U-251; 40.3 µM (inactive) in the assay with EKVX; 16.1 µM (inactive) with SK-MEL-5; 50.8 µM (inactive) with SNB-75. The GI50 was 29.8 µM (inactive) with PC-3; 45.9 µM (inactive) in the assay on SF-268; 26.9 µM (inactive) in the assay with MDA-MB-231; 12.5 µM (inactive) in the assay with SR; 26.4 µM (inactive) in the assay with CAKI-1; 20 µM (inactive) in the assay with SW-620. In addition, the GI50 in the assay on OVCAR-4 was 17.1 µM (inactive); with RXF 393, 16 µM (inactive).
On to `COc1cc(C(=O)C2C(=O)c3ccccc3C2C2(O)c3ccccc3CC2C(O)c2cc(OC)c(OC)c(OC)c2)cc(OC)c1OC` (stereo not drawn), for which the GI50 with SK-OV-3 is 32.1 µM (inactive); in the assay with NCI-H226, > 100 µM (inactive); in the assay with UACC-62, > 100 µM (inactive); in the assay with SNB-19, > 100 µM (inactive); in the assay on M14 it was > 100 µM (inactive); in the assay with TK-10, > 100 µM (inactive). The GI50 in the assay on NCI-H460 was > 100 µM (inactive); with COLO 205, > 100 µM (inactive); in the assay on U-251, 41.3 µM (inactive); with EKVX, > 100 µM (inactive); in the assay with SK-MEL-5, > 100 µM (inactive); in the assay on SNB-75, 20.3 µM (inactive). Besides, the GI50 in the assay on PC-3 was > 100 µM (inactive); in the assay on SF-268, 91.4 µM (inactive); with MDA-MB-231 it was 94.2 µM (inactive); in the assay with SR, > 100 µM (inactive); in the assay on CAKI-1, > 100 µM (inactive); with SW-620 it was > 100 µM (inactive). Also, the GI50 with OVCAR-4 and in the assay on RXF 393 was > 100 µM (inactive) throughout.
As for `CN(C)CCCNc1ccc2nnn3c4ccc([N+](=O)[O-])cc4c(=O)c1c23`, the GI50 in the assay on SK-OV-3 is 1.79 µM (inactive); in the assay on NCI-H226, 0.403 µM (active); in the assay on UACC-62, 4.33 µM (inactive); with SNB-19, 2.73 µM (inactive); in the assay on M14, 2.14 µM (inactive); in the assay with TK-10 it was 1.13 µM (inactive). For the same molecule, the GI50 with NCI-H460 was 0.313 µM (active); in the assay on COLO 205, 0.834 µM (active); with U-251, 0.738 µM (active); in the assay with EKVX it was 2.56 µM (inactive); in the assay on SK-MEL-5, 1.7 µM (inactive); in the assay with SNB-75, 1.51 µM (inactive). The GI50 in the assay on PC-3 was 1.28 µM (inactive); with SF-268 it was 1.14 µM (inactive); with MDA-MB-231 it was 0.274 µM (active); in the assay on SR, 0.617 µM (active); with CAKI-1 it was 1.73 µM (inactive); in the assay with SW-620 it was 0.45 µM (active). In addition, the GI50 was 1.02 µM (active) in the assay on OVCAR-4 and 1.12 µM (active) in the assay with RXF 393.
`Nc1ccc(-c2ncc3cc(-c4cccc(-c5cc6cnc(-c7ccc(N)cc7)nc6c6ccccc56)c4)c4ccccc4c3n2)cc1`: the GI50 is > 100 µM (inactive) in the assay with SK-OV-3; > 100 µM (inactive) with NCI-H226; > 100 µM (inactive) in the assay on UACC-62; > 100 µM (inactive) in the assay with SNB-19; 60.1 µM (inactive) in the assay on M14; > 100 µM (inactive) in the assay on TK-10. For the same molecule, the GI50 is > 100 µM (inactive) with NCI-H460; 35.3 µM (inactive) in the assay on COLO 205; > 100 µM (inactive) in the assay with U-251; > 100 µM (inactive) in the assay with EKVX; 34.5 µM (inactive) in the assay with SK-MEL-5; > 100 µM (inactive) in the assay on SNB-75. In addition, the GI50 with PC-3, in the assay with SF-268, in the assay on MDA-MB-231, with SR, in the assay with CAKI-1 and with SW-620 was > 100 µM (inactive) each time. Moreover, the GI50 in the assay on RXF 393 is > 100 µM (inactive).

Broadly, the GI50 is the concentration at which growth is held to half of that of the control.
